Measured values published in the supplement of paper PMC4862054.

Key:
Experiment in all cases: normalised response (% of control), CellTox Green; higher = less cell death (100 = DMSO, 0 = benzethonium chloride kill control)
Details in all cases: incubation time: 72 h
BT-474 = tested on: BT-474
In short: (§1)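 After 72 h with compound in 384-well plates, breast cancer cell lines seeded as 20 µl suspension were read for CellTox Green fluorescence at 485/520 nm. CellTiter-Glo luminescence was then read after 10 min at room temperature. Compound was present at 5 concentrations in 10-fold steps over a 10,000-fold range set per compound, and plates were normalised to 0.1 % DMSO (100) and a positive kill control (0). Values are normalised signals, each at a single concentration.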

BT-549 = tested on: BT-549
In short: as §1

CAL-120 = tested on: CAL-120
In short: as §1

CAL-148 = tested on: CAL-148
In short: as §1

CAL-51 = tested on: CAL-51
In short: as §1

CAL-85-1 = tested on: CAL-85-1
In short: as §1

DU-4475 = tested on: DU-4475
In short: as §1

HCC1143 = tested on: HCC1143
In short: as §1

HCC1599 = tested on: HCC1599
In short: as §1

HCC1937 = tested on: HCC1937
In short: as §1

HDQ-P1 = tested on: HDQ-P1
In short: as §1

Hs578T = tested on: Hs578T
In short: as §1

MCF-10A = tested on: MCF-10A
In short: as §1

MDA-MB-231 = tested on: MDA-MB-231
In short: as §1

MDA-MB-436 = tested on: MDA-MB-436
In short: as §1

MDA-MB-453 = tested on: MDA-MB-453
In short: as §1

MDA-MB-468 = tested on: MDA-MB-468
In short: as §1

MFM-223 = tested on: MFM-223
In short: as §1

| SMILES | normalised response (BT-474) | normalised response (BT-549) | normalised response (CAL-120) | normalised response (CAL-148) | normalised response (CAL-51) | normalised response (CAL-85-1) | normalised response (DU-4475) | normalised response (HCC1143) | normalised response (HCC1599) | normalised response (HCC1937) | normalised response (HDQ-P1) | normalised response (Hs578T) | normalised response (MCF-10A) | normalised response (MDA-MB-231) | normalised response (MDA-MB-436) | normalised response (MDA-MB-453) | normalised response (MDA-MB-468) | normalised response (MFM-223) |
| --- | --- | --- | --- | --- | --- | --- | --- | --- | --- | --- | --- | --- | --- | --- | --- | --- | --- | --- |
| CN1CC[C@H](c2c(O)cc(O)c3c(=O)cc(-c4ccccc4Cl)oc23)[C@H](O)C1 [Alvocidib] (1000 nM) | 90.2% | 83.2% | 85.3% | -101% | 77.1% | 24.9% | 85.3% | 85.1% | 50.4% | 115% | 58% | 65.7% | 18.7% | 30.7% | 80.5% | 97.7% | 109% | 56.6% |
| CN1CC[C@H](c2c(O)cc(O)c3c(=O)cc(-c4ccccc4Cl)oc23)[C@H](O)C1 [Alvocidib] (10000 nM) | 88.8% | 66.1% | 81.8% | 92% | 63.9% | -9.96% | 94.9% | 92.5% | 86% | 92.3% | 71.5% | 12.8% | -1.97% | 25.4% | 100% | 102% | 52.6% | 47.7% |
| Nc1ccn([C@@H]2O[C@H](CO)[C@@H](O)[C@@H]2O)c(=O)n1 [Cytarabine] (1000 nM) | 103% | 111% | 106% | 69.9% | 37.4% | 109% | 109% | 112% | 104% | 117% | 107% | 85.2% | 115% | 106% | 83.5% | 112% | 159% | 97.5% |
| Nc1ccn([C@@H]2O[C@H](CO)[C@@H](O)[C@@H]2O)c(=O)n1 [Cytarabine] (10000 nM) | 100% | 99.4% | 108% | 69.2% | 26.1% | 91.7% | 101% | 64.6% | 95.5% | 96.1% | 111% | 134% | 48.4% | 113% | 93.6% | 104% | 156% | 107% |
| Cc1c2oc3c(C)ccc(C(=O)N[C@@H]4C(=O)N[C@H](C(C)C)C(=O)N5CCC[C@H]5C(=O)N(C)CC(=O)N(C)[C@@H](C(C)C)C(=O)O[C@@H]4C)c3nc-2c(C(=O)N[C@@H]2C(=O)N[C@H](C(C)C)C(=O)N3CCC[C@H]3C(=O)N(C)CC(=O)N(C)[C@@H](C(C)C)C(=O)O[C@@H]2C)c(N)c1=O [Dactinomycin] (100 nM) | 76.7% | 33.4% | 85.4% | 23.9% | 29.5% | 31.6% | 81.8% | 91% | 75.9% | 109% | 61.8% | 26.1% | -3.54% | 17.9% | 89.8% | 98% | 56.9% | 78.6% |
| Cc1c2oc3c(C)ccc(C(=O)N[C@@H]4C(=O)N[C@H](C(C)C)C(=O)N5CCC[C@H]5C(=O)N(C)CC(=O)N(C)[C@@H](C(C)C)C(=O)O[C@@H]4C)c3nc-2c(C(=O)N[C@@H]2C(=O)N[C@H](C(C)C)C(=O)N3CCC[C@H]3C(=O)N(C)CC(=O)N(C)[C@@H](C(C)C)C(=O)O[C@@H]2C)c(N)c1=O [Dactinomycin] (1000 nM) | 89.6% | 93% | 101% | 79.9% | 95.1% | 13.8% | 104% | 59.3% | 113% | 124% | 94.9% | 40.6% | 41.4% | 52.3% | 116% | 104% | 52.8% | 60.5% |
| COc1cccc2c1C(=O)c1c(O)c3c(c(O)c1C2=O)C[C@@](O)(C(=O)CO)C[C@@H]3O[C@H]1C[C@H](N)[C@H](O)[C@H](C)O1 [Doxorubicin] (1000 nM) | 105% | 185% | 92.7% | 66.4% | 22.4% | 77.5% | 111% | 143% | 149% | 148% | 120% | 159% | 129% | 160% | 126% | 130% | 363% | 68% |
| Cc1ccc(F)c(NC(=O)Nc2ccc(-c3cccc4[nH]nc(N)c34)cc2)c1 [Linifanib] (100 nM) | 101% | 110% | 101% | 108% | 101% | 96.3% | 107% | 122% | 106% | 117% | 112% | 66.5% | 107% | 116% | 66.4% | 108% | 66.5% | 103% |
| Cc1ccc(F)c(NC(=O)Nc2ccc(-c3cccc4[nH]nc(N)c34)cc2)c1 [Linifanib] (1000 nM) | 101% | 122% | 97.9% | 95.7% | 99.5% | 65.7% | 106% | 87.2% | 104% | 104% |  | 105% | 90% | 110% | 107% | 102% | 86.9% | 101% |
| S=c1[nH]cnc2nc[nH]c12 [Mercaptopurine] (1000 nM) | 94.6% | 77.2% | 104% | 102% | 102% | 104% | 97.6% | 88.2% | 92.1% | 23.3% | 97.3% | 104% | 108% | 96.1% | 100% | 101% | 155% | 85.8% |
| S=c1[nH]cnc2nc[nH]c12 [Mercaptopurine] (10000 nM) | 101% | 107% | 101% | 96.1% | 101% | 118% | 97.8% | 108% | 102% | 89.1% | 102% | 121% | 83.9% | 95.7% | 93.6% | 91.5% | 185% | 79.1% |
| COc1cccc2cc(-c3nc([C@H]4CC[C@H](C(=O)O)CC4)n4ncnc(N)c34)[nH]c12 [OSI-027] (10000 nM) | 94.2% | 113% | 96.9% | 72.5% | 94.5% | 89.2% | 99.7% | 115% | 107% | 112% | 106% | 130% | 101% | 130% | 109% | 103% | 86% | 84% |
| OC[C@H]1O[C@@H](n2cnc3c2N=CNC[C@H]3O)C[C@@H]1O [Pentostatin] (1000 nM) | 98.9% | 111% | 103% | 95.5% | 103% | 106% | 103% | 101% | 95.5% | 104% | 103% | 97.8% | 108% | 116% | 102% | 107% | 100% | 96% |
| OC[C@H]1O[C@@H](n2cnc3c2N=CNC[C@H]3O)C[C@@H]1O [Pentostatin] (10000 nM) | 103% | 88.3% | 104% | 102% | 102% | 85.2% | 97.4% | 110% | 95.2% | 103% | 101% | 103% | 103% | 118% | 97.6% | 104% | 112% | 90.8% |
| N#CC[C@H](C1CCCC1)n1cc(-c2ncnc3[nH]ccc23)cn1 [Ruxolitinib] (1000 nM) | 100% | 127% | 96.5% | 104% | 111% | 108% | 95.8% | 102% | 95.2% |  | 86.3% | 83.8% |  | 107% | 96.2% | 102% | 119% | 96.2% |
| N#CC[C@H](C1CCCC1)n1cc(-c2ncnc3[nH]ccc23)cn1 [Ruxolitinib] (10000 nM) | 98.6% | 113% | 98.7% | 95.1% | 76.2% | 84.8% | 98.2% | 98.3% | 96.7% |  |  | 118% | 90% | 93.4% | 97.7% | 98.4% | 149% | 94.1% |
| C=CCNC1=C2C[C@@H](C)C[C@H](OC)[C@H](O)[C@@H](C)/C=C(\C)[C@H](OC(N)=O)[C@@H](OC)/C=C\C=C(/C)C(=O)NC(=CC1=O)C2=O [Tanespimycin] (1000 nM) | 76.9% | 99.8% | 94.5% | 28.2% | 48.8% | 68.2% | 62.4% | 91.2% | 95.6% | 120% | 60.1% | 98.9% | 31.3% | 36.8% | 24.3% | 93.3% | 121% | 98.9% |
| C=CCNC1=C2C[C@@H](C)C[C@H](OC)[C@H](O)[C@@H](C)/C=C(\C)[C@H](OC(N)=O)[C@@H](OC)/C=C\C=C(/C)C(=O)NC(=CC1=O)C2=O [Tanespimycin] (10000 nM) | 62.6% | 109% | 84.2% | 39.8% | 58.7% | 75.6% | 69% | 52.5% | 108% | 102% | 55.1% | 61.2% | 39.1% | 15.4% | 99.4% | 87.4% | 100% | 86% |
| CO[C@H]1C[C@@H]2CC[C@@H](C)[C@@](O)(O2)C(=O)C(=O)N2CCCC[C@H]2C(=O)O[C@H]([C@H](C)C[C@@H]2CC[C@@H](OC(=O)C(C)(CO)CO)[C@H](OC)C2)CC(=O)[C@H](C)/C=C(\C)[C@@H](O)[C@@H](OC)C(=O)[C@H](C)C[C@H](C)/C=C/C=C/C=C/1C [Temsirolimus] (100 nM) | 91.2% | 130% | 102% | 87.2% | 103% | 80% | 98.8% | 130% | 106% | 110% | 109% | -18.9% | 91.2% | 123% | 97.1% | 107% | 149% | 90.9% |
| C[C@]1(c2nc3c(C(N)=O)cccc3[nH]2)CCCN1 [Veliparib] (10000 nM) | 96.5% | 106% | 98.2% |  | 86.6% | 87.9% | 103% | 110% | 117% | 110% | 90.5% | 109% | 107% | 88.2% | 112% | 95.4% | 125% | 92.3% |
